According to ChEMBL document CHEMBL3784951, “Discovery of (3-(4-(2-Oxa-6-azaspiro[3.3]heptan-6-ylmethyl)phenoxy)azetidin-1-yl)(5-(4-methoxyphenyl)-1,3,4-oxadiazol-2-yl)methanone (AZD1979), a Melanin Concentrating Hormone Receptor 1 (MCHr1) Antagonist with Favorable Physicochemical Properties” (J Med Chem, 2016):
≈ marks a conversion by molar mass, not a printed value.

Legend:
physchem [1] = details: buffer, pH 7.4
in vitro [2] = details: human, microsomes
in vitro [3] = details: human, Caco-2
physchem [4] = test: physchem
Mus musculus [5] = organism: Mus musculus; test: animal or person; details: C57BL/6J
in vitro [6] = details: rat, microsomes
in vitro [7] = details: human, Caco-2; remark: listed apart in the source
physchem [8] = details: pH 7.4
Mus musculus [9] = organism: Mus musculus; test: animal or person; details: C57BL/6J; remark: listed apart in the source

logD (physchem [1])	microsomal CLint (in vitro [2]) [µL/min/mg]	Papp A→B (in vitro [3]) [×10⁻⁶ cm/s]	pKa (physchem [4])	IC50 (Mus musculus [5]) [nM]	microsomal CLint (in vitro [6]) [µL/min/mg]	efflux ratio (in vitro [7])	solubility (physchem [8]) [µM]	IC50 (Mus musculus [9]) [nM]	SMILES
2.7	29	41	8.4	2	–	–	–	–	COc1ccc(-c2nnc(C(=O)N3CC(Oc4ccc(CN5CC6(CCCO6)C5)cc4)C3)o2)cc1
2.1	2	–	8.6	–	–	–	–	–	O=C(c1nnc(-c2ccccc2)o1)N1CC(Oc2ccc(CN3CC4(CCOC4)C3)cc2)C1
3.9	74	–	–	–	–	–	–	–	COc1ccc(-c2nnc(C(=O)N3CC(Oc4ccc(CN5CCCC56COC6)cc4)C3)o2)cc1
3.3	332	51	7.5	–	–	–	–	–	COc1ccc(-c2nnc(C(=O)N3CC(Oc4ccc(CN5CCOCC5)c(OC)c4)C3)o2)cc1
2.5	–	56	8.5	–	–	–	–	–	COc1ccc(-c2nnc(C(=O)N3CCC(Oc4ccc(CN5CCN(C)CC5)cc4)CC3)o2)cc1
4	117	–	8.5	–	–	–	–	–	CN(Cc1ccc(OC2CN(C(=O)c3nnc(-c4ccccc4)o3)C2)cc1)CC1(C)COC1
1.8	–	79	–	15	–	–	–	–	O=C(c1nnc(-c2ccccc2)o1)N1CC(Oc2ccc(CN3CC4(COC4)C3)cc2)C1
2.3	24	49	9.2	–	28	–	–	–	COc1ccc(-c2nnc(C(=O)N3CCC(Oc4ccc(CN5CCCC5)cn4)CC3)o2)cc1
2	22	54	9.3	1	149	0.3	–	–	COc1ccc(-c2nnc(C(=O)N3CC(Oc4ccc(CN(C)C)c(C)c4)C3)o2)cc1
4.1	110	–	8	–	–	–	–	–	COc1ccc(-c2nnc(C(=O)N3CC(Oc4ccc(CN(C)CC5(C)COC5)cc4)C3)o2)cc1
2.6	6	–	8.4	–	–	–	–	–	O=C(c1nnc(-c2ccccc2)o1)N1CC(Oc2ccc(CN3CC4(CCCO4)C3)cc2)C1
2.3	51	–	8.5	–	–	–	–	–	COc1ccc(-c2nnc(C(=O)N3CC(Oc4ccc(CN5CC(OC)C5)cc4)C3)o2)cc1
–	13	43	–	–	17	–	70 (≈ 32.7 µg/mL)	–	O=C(c1nnc(-c2ccc(Cl)cc2)o1)N1CCC(Oc2ccc(CN3CCCC3)cc2)CC1
1.8	–	31	9.1	–	–	–	–	–	COc1ccc(-c2nnc(C(=O)N3CCC(Oc4ccc(CN5CCCC5)nc4)CC3)o2)cc1
1.45	–	34	9	146	–	0.26	–	–	CC1(O)CCN(Cc2ccc(OC3CN(C(=O)c4nnc(-c5ccccc5)o4)C3)cc2)C1 (stereo not given)
2.2	7	–	–	–	–	–	930 (≈ 413 µg/mL)	–	Cn1nc(C(=O)N2CCC(Oc3ccc(CN4CCCC4)cc3)CC2)cc1-c1ccccc1

logD (physchem [1])	microsomal CLint (in vitro [2]) [µL/min/mg]	Papp A→B (in vitro [3]) [×10⁻⁶ cm/s]	pKa (physchem [4])	IC50 (Mus musculus [5]) [nM]	microsomal CLint (in vitro [6]) [µL/min/mg]	efflux ratio (in vitro [7])	solubility (physchem [8]) [µM]	IC50 (Mus musculus [9]) [nM]	SMILES
2.2	14	60	8.6	2	–	–	–	–	COc1ccc(-c2nnc(C(=O)N3CC(Oc4ccc(CN5CC6(CCOC6)C5)cc4)C3)o2)cc1
2.7	13	59	–	–	–	–	–	–	O=C(c1nnc(-c2ccccc2Cl)o1)N1CCC(Oc2ccc(CN3CCCC3)cc2)CC1
2.4	37	51	8.1	–	–	–	–	–	COc1ccc(-c2nnc(C(=O)N3CC(Oc4ccc(CN5CCCOCC5)cc4)C3)o2)cc1
2.4	–	52	–	–	–	–	> 100	–	O=C(c1nnc(-c2ccc(F)cc2)o1)N1CCC(Oc2ccc(CN3CCCC3)cc2)CC1
1.55	17	67	8.9	14	53	–	–	–	COc1ccc(-c2nnc(C(=O)N3CC(Oc4ccc(CN(C)C)cc4)C3)o2)cc1
2.2	42	62	8.6	9	218	0.32	–	–	COc1ccc(-c2nnc(C(=O)N3CC(Oc4ccc(CN(C)C)c(F)c4)C3)o2)cc1
3	–	–	–	–	–	–	754 (≈ 336 µg/mL)	–	Cc1oc(-c2ccccc2)nc1C(=O)N1CCC(Oc2ccc(CN3CCCC3)cc2)CC1
1.6	2.8	42	9	35	–	–	–	–	COc1ccc(-c2nnc(C(=O)N3CC(Oc4ccc(CN5CCC(C)(O)C5)cc4)C3)o2)cc1 (stereo not given)
3	–	–	–	–	–	–	198 (≈ 85.4 µg/mL)	–	O=C(c1cc(-c2ccccc2)on1)N1CCC(Oc2ccc(CN3CCCC3)cc2)CC1
2.2	–	55	–	–	–	–	> 100	–	O=C(c1nnc(-c2ccccc2)o1)N1CCC(Oc2ccc(CN3CCCC3)cc2)CC1
2.2	36	46	8.4	–	–	0.35	–	–	COc1ccc(-c2nnc(C(=O)N3CC(Oc4ccc(CN5CCN(C)CC5)c(F)c4)C3)o2)cc1
2.6	19	34	8.9	–	–	–	–	91	COc1ccc(-c2nnc(C(=O)N3CCC(Oc4ccc(CN5CC(O)C(C)(C)C5)cc4)CC3)o2)cc1 (stereo not given)
1.8	13	–	8.5	–	145	–	–	–	COc1ccc(-c2nnc(C(=O)N3CC(Oc4ccc(CN(C)C)cn4)C3)o2)cc1
2.1	20	46	8.4	–	–	0.35	–	–	CN1CCN(Cc2ccc(OC3CN(C(=O)c4nnc(-c5ccccc5)o4)C3)cc2F)CC1
2.9	15	50	–	–	–	–	–	–	O=C(c1nnc(-c2ccc(OC(F)F)cc2)o1)N1CCC(Oc2ccc(CN3CCCC3)cc2)CC1
2	–	36	8.9	–	–	–	–	293	COc1ccc(-c2nnc(C(=O)N3CCC(Oc4ccc(CN5CCC(O)C5)cc4)CC3)o2)cc1 (stereo not given)
